Assay results as given in patent publication US5856506A, “Phosphatase inhibitors and methods of use thereof” (University of Pittsburgh, priority 1997, dated 1999).

Legend:
Type in all cases: biochemical
[1] = tested on: PP3; assay: Phosphatase activity by [32P] release from phosphorylase-a or phosphohistone (Honkanen method); settings: 100 μM inhibitor; none = 100
Description: (§1) It has been found in accordance with the present invention that compounds of formula I are capable of inhibiting serine/threonine protein phosphatases. Inhibition of serine/threonine protein phosphatases is defined herein as inhibition of the activity of one or more of PP1, PP2A or PP3 at a concentration of 100 μM or less of the inhibitor compound. In a preferred embodiment, the activity of the phosphatase is inhibited by at least 10%. In more preferred embodiments, the activity of the phophatase is inhibited by at least 25%, or even more preferably, by at least 50%. Inhibition of PP1, PP2A or PP3 can be assessed by methods known to one of ordinary skill in the art. Suitable assays are described, for example by Honkanen et al. (1994) Toxicon 32:339 and Honkanen et al. (1990) J. Biol. Chem. 265: 19401, the disclosures of which are incorporated herein by reference. Briefly, phosphatase activity is determined by quantifying the [^32 p] released from a ^32 p-labeled substrate such as phosphohistone or phosphorylase-a. Decreased [^32 p] release in the presence of the compounds of the present invention relative to control samples provides a measure of the ability of the compounds of the invention to inhibit PP1, PP2A or PP3.
(§2) Phosphatase activity and the inhibitory activity of the compounds of Table 1 were determined by the method of Honkanen et al. (1994) Toxicon 32:339. Briefly, phosphatase activity against phosphorylase-a or phosphohistone was 25 determined by the quantification of liberated [^32 p]. Assays, 80 μl total volume, containing 50 mM Tris-HCl, pH 7.4, 0.5 mM DTT, 1 mM EDTA (assay buffer) and [^32 p]phosphoprotein (1-2 μM PO4), were conducted as described previously (Honkanen et al., 1991 Mol. Pharmac. 40:577). Dephosphorylation reactions were routinely conducted for 5-10 min. using phosphorylase-a as a substrate and for 10-20 min. using phosphohistone. In all assays the dephosphorylation of substrate was kept to less than 10% of the total phosphorylated substrate available, and the reactions were adjusted to ensure that enzyme activity was linear with respect to enzyme concentration and time. [^32 p]Phosphate liberated by the enzymes was extracted as a phosphomolybdate complex and measured according to the methods of Killilea et al. (1978) Arch. Biochem. Biophys. 191:638. Inhibition of protein phosphatase activity by inhibitors was determined by adding the 100 μM of inhibitors to the enzyme mixture 5-10 min. prior to initiating the reaction with the addition of substrate.

[2] = tested on: PP1; assay: as above; settings: 100 μM inhibitor; none = 100
Description: as §1, §2

[3] = target: PP2A (Bos taurus, UniProt P67774); assay: as above; settings: 100 μM inhibitor; none = 100; read-out: PP2A, percent inhibition relative to control (100%)
Chain of PP2A (P67774 whole entry): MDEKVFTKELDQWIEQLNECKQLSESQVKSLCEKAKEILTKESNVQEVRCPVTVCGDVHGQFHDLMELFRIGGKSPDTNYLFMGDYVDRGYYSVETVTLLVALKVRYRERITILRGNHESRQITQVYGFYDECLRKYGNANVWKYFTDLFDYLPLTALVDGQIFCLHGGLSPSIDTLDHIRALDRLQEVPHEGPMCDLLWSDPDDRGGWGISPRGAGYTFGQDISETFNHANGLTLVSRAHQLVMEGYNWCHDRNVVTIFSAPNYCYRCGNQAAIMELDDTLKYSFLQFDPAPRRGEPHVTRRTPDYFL
Description: as §1, §2

[4] = tested on: Recombinant human CDC25B; assay: CDC25B phosphatase assay, GST fusion protein, fluorescein diphosphate; settings: none = 100; 1 hour preincubation; concentration not given (0.3-100 μM tested)
Description: The compounds of the present invention are also capable of inhibiting dual specificity phosphatases, for example CDC25A and CDC25B. Phosphatases CDC25A and CDC25B are disclosed in U.S. Pat. No. 5,441,880. Inhibition of dual specificity phosphatases is defined herein as inhibition of the activity of CDC25A and/or CDC25B at a concentration of 100 μM of the inhibitor compound. In a preferred embodiment, the activity of the phosphatase is inhibited by at least 10%. In more preferred embodiments, the activity of the phophatase is inhibited by at least 25%, or even more preferably, by at least 50%. The ability of the compounds of the present invention to inhibit the phosphatases can be determined by measuring the effect of the compounds on the ability of CDC25 or CDC25B to dephosphorylate a substrate. Appropriate methods are known to those of ordinary skill in the art, and include, for example, calorimetric assays. A suitable assay is described in U.S. Pat. No. 5,441,880, the disclosure of which is incorporated herein by reference. […] The assay may be performed as a rapid calorimetric microtitration plate assay.
Compounds 1a-1r were assessed for ability to inhibit CDC25A and CDC25B activity. Recombinant human CDC25A and CDC25B were obtained as a glutahione-S-transferase (GST) fusion protein using human cDNA and standard molecular biological methods. The cDNA constructs are in a plasmid that is expressed in E. coli under the control of isopropyl-beta-D-[…] (IPTG). The bacterial pellet was disrupted by sonication, and centrifuged at 10,000×g. Using glutathione-agarose beads, the fusion protein was purified from postmicrosomal supernant fraction as described by Baratte et al. (1992) Anticancer Res. 12: 873-880. Phosphatase activity was assayed with a spectrofluorimeter under the following conditions: 1 unit (1 U=amount of protein that induces 33 fluoresence units/minute of product) of fusion protein in a final incubation mixture (150 μL) comprised of 25 mM Tris (pH=8.0), 5 mM EDTA, 33 μg/ml BSA, and 20 μM fluorescein diphosphate in 96-well microtiter plates. Plates were preincubated for 1 hour with 0 (control), 0.3, 1, 3, 10, 30, 100 μM compounds at room temperature. After the 1 hour incubation at room temperature, fluorescence of the fluorescein product (Ex. 485 nm; Em. 530 nm) were measured with a Biosystems Cytofluor II (Framingham, Mass.).

SMILES	PP3 remaining activity, percent of control [1] [%]	PP1 remaining activity, percent of control [2] [%]	PP2A remaining activity, % of control at 100 µM [3] [%]	CDC25B activity remaining, percent of control [4] [%]
CN(CCNC(=O)c1nc(-c2ccccc2)oc1-c1ccccc1)C(=O)CCC(NC(=O)C=Cc1ccccc1)C(=O)O (stereo not shown) [Compound 1p]	68	65	99	87
CCCCCCCCCC(=O)NC(CCC(=O)N(CCCCCC)CCNC(=O)c1nc(-c2ccccc2)oc1-c1ccccc1)C(=O)O (stereo not shown) [Compound 1e]	71	153	152	17
CCCCCCCCCC(=O)NC(CCC(=O)N(CCNC(=O)c1nc(-c2ccccc2)oc1C)Cc1ccccc1)C(=O)O (stereo not shown) [Compound 1c]	28		129	42
Cc1oc(-c2ccccc2)nc1C(=O)NCCN(C)C(=O)CCC(NC(=O)CCc1ccccc1)C(=O)O (stereo not shown) [Compound 1g]	21	53	109	61
CN(CCNC(=O)c1nc(-c2ccccc2)oc1-c1ccccc1)C(=O)CCC(NC(=O)CCc1ccccc1)C(=O)O (stereo not shown) [Compound 1j]	38	80	72	90
O=C(C=Cc1ccccc1)NC(CCC(=O)N(CCNC(=O)c1nc(-c2ccccc2)oc1-c1ccccc1)Cc1ccccc1)C(=O)O (stereo not shown) [Compound 1r]	15	53	68	56
Cc1oc(-c2ccccc2)nc1C(=O)NCCN(Cc1ccccc1)C(=O)CCC(NC(=O)CCc1ccccc1)C(=O)O (stereo not shown) [Compound 1i]	14		80	63
CCCCCCN(CCNC(=O)c1nc(-c2ccccc2)oc1C)C(=O)CCC(NC(=O)C=Cc1ccccc1)C(=O)O (stereo not shown) [Compound 1n]	26	40	87	66
CCCCCCN(CCNC(=O)c1nc(-c2ccccc2)oc1-c1ccccc1)C(=O)CCC(NC(=O)CCc1ccccc1)C(=O)O (stereo not shown) [Compound 1k]	24	48	67	76
CCCCCCCCCC(=O)NC(CCC(=O)N(C)CCNC(=O)c1nc(-c2ccccc2)oc1C)C(=O)O (stereo not shown) [Compound 1a]	76	121	100	106
Cc1oc(-c2ccccc2)nc1C(=O)NCCN(C)C(=O)CCC(NC(=O)C=Cc1ccccc1)C(=O)O (stereo not shown) [Compound 1m]	60	111	108	45
Cc1oc(-c2ccccc2)nc1C(=O)NCCN(Cc1ccccc1)C(=O)CCC(NC(=O)C=Cc1ccccc1)C(=O)O (stereo not shown) [Compound 1o]	13	64	88	66
CCCCCCCCCC(=O)NC(CCC(=O)N(CCCCCC)CCNC(=O)c1nc(-c2ccccc2)oc1C)C(=O)O (stereo not shown) [Compound 1b]	32	59	135	44
CCCCCCN(CCNC(=O)c1nc(-c2ccccc2)oc1-c1ccccc1)C(=O)CCC(NC(=O)C=Cc1ccccc1)C(=O)O (stereo not shown) [Compound 1q]	28	85	60	62
O=C(CCc1ccccc1)NC(CCC(=O)N(CCNC(=O)c1nc(-c2ccccc2)oc1-c1ccccc1)Cc1ccccc1)C(=O)O (stereo not shown) [Compound 1l]	22	59	69	69
